Source: US20050197371A1, “Urea derivatives as PDGFR modulators” (Ambit Biosciences Corporation, priority 2003, published 2005)

biological target: T1, PDGFRB(DKIN) (PDGFR-β) (Homo sapiens, UniProt P09619); test: Phage-display competitive binding assay, PDGFRB(DKIN); conditions: T7 phage displaying human PDGFR-β, DKIN construct; read-out: Binding Assay: PDGFRB(DKIN)
T1 construct: PDGFRB(DKIN)
Description: The term “ND” represents non-determined values.
Briefly, T7 phage displaying human PDGFR-β were incubated with an affinity matrix coated with known PDGFR-β inhibitor in the presence of various concentrations of the soluble competitor molecules.

| Kd [nM] | SMILES |
| --- | --- |
| 1000 to 10000 | CC(C)(C)c1cc(NC(=O)Nc2ccc(NC(=O)c3c[nH]c(=O)nc3-c3ccncc3)cc2)no1 [Compound N19] |
| < 100 | CC(C)(C)c1cc(NC(=O)Nc2ccc(Nc3ncnc4[nH]cnc34)cc2)no1 [Compound O3] |
| 100 to 1000 | Cc1cc(NC(=O)c2cn3nc(Cl)ccc3n2)ccc1NC(=O)Nc1cc(C(C)(C)C)on1 [Compound N169] |
| < 100 | CC(C)c1oc(Cl)nc1C(=O)Nc1ccc(NC(=O)Nc2cc(C(C)(C)C)on2)cc1 [Compound N75] |
| 100 to 1000 | Cc1nc(-c2ccccc2)sc1C(=O)Nc1ccc(NC(=O)Nc2cc(C(C)(C)C)on2)cc1 [Compound N181] |
| 100 to 1000 | CC(C)(C)c1cc(NC(=O)Nc2ccc(NC(=O)c3cccnc3C(=O)O)cc2)no1 [Compound N165] |
| 100 to 1000 | CSc1ccc(NC(=O)Nc2cc(C(C)(C)C)no2)cc1 [Compound A39] |
| < 100 | CC(C)(C)c1cc(NC(=O)Nc2ccc(NC(=O)c3ccc4ccccc4c3)cc2)no1 [Compound N28] |
| < 100 | CC(C)(C)c1cc(NC(=O)Nc2ccc(OCc3cccc(F)c3)cc2)no1 [Compound G14] |
| 100 to 1000 | Cc1ccc(-n2nc(C(C)(C)C)cc2NC(=O)Nc2ccc(Cl)cc2)cc1 [Compound H14] |
| 100 to 1000 | CC(C)(C)c1cc(NC(=O)Nc2ccc(-c3nc(-c4ccc(Cl)cc4)no3)cc2)no1 [Compound P7] |
| 100 to 1000 | COc1ccc(NC(=O)Nc2cc(C(C)(C)C)on2)cc1 [Compound A29] |
| < 100 | CC(C)(C)c1cc(NC(=O)Nc2ccc(NC(=O)c3ccccc3)cc2)no1 [Compound N34] |
| 1000 to 10000 | CC(C)(C)c1cnc(CSc2cnc(NC(=O)Nc3ccon3)s2)o1 |
| 100 to 1000 | COc1ccc(NC(=O)Nc2cc(C(F)(F)F)cc(Cl)n2)cc1 [Compound Z71] |
| 100 to 1000 | COC(=O)c1ccc(C(=O)Nc2ccc(NC(=O)Nc3cc(C(C)(C)C)on3)cc2)nc1 [Compound N12] |

| Kd [nM] | SMILES |
| --- | --- |
| 100 to 1000 | CC(C)(C)c1cc(NC(=O)Nc2ccc(NC(=O)c3ccc(Cl)nc3Cl)cc2)no1 [Compound N130] |
| < 100 | CCc1ccc(C(=O)Nc2ccc(NC(=O)Nc3cc(C(C)(C)C)on3)cc2)cc1 [Compound N32] |
| 100 to 1000 | COc1cc2nc(Cl)nc(Nc3ccc(NC(=O)Nc4cc(C(C)(C)C)on4)cc3)c2cc1OC [Compound O1, 1-(4-(2-chloro-6,7-dimethoxyquinazolin-4-ylamino)phenyl)-3-(5-tert-butylisoxazol-3-yl)urea] |
| < 100 | Cc1ccc2[nH]c(C(=O)Nc3ccc(NC(=O)Nc4cc(C(C)(C)C)on4)cc3)cc2c1 [Compound N127] |
| 100 to 1000 | CC(C)(C)c1cc(NC(=O)Nc2ccc(NC(=O)c3csc(Cc4cccc(C(F)(F)F)c4)n3)cc2)no1 [Compound N180] |
| 100 to 1000 | CC(C)(C)c1cc(NC(=O)Nc2ccc(NC(=O)/C=C/c3ccccc3Cl)cc2)no1 [Compound N40] |
| 100 to 1000 | COc1cc(OC)nc(C2CCCCC2C(=O)Nc2ccc(NC(=O)Nc3cc(C(C)(C)C)on3)cc2)n1 (centres unmarked) [Compound N129] |
| < 100 | COc1ccnc(Nc2ccc(C(=O)Nc3ccc(NC(=O)Nc4cc(C(C)(C)C)on4)cc3)cc2)n1 [Compound N51] |
| < 100 | CC(C)(C)c1cc(NC(=O)Nc2ccc(CCc3ccccc3)cc2)no1 [Compound A15] |
| 100 to 1000 | COC(=O)c1cccc(Sc2ncc(NC(=O)Nc3cc(C(C)(C)C)on3)s2)c1 [Compound O8] |
| 1000 to 10000 | CC(C)(C)c1cc(NC(=O)Nc2ccc(NC(=O)c3cc(O)c4cccc(O)c4n3)cc2)no1 [Compound N176] |
| < 100 | Cc1ccc(NC(=O)Nc2cc(C(C)(C)C)on2)cc1 [Compound A33] |
| < 100 | CC(=O)Oc1cccnc1C(=O)Nc1ccc(NC(=O)Nc2cc(C(C)(C)C)on2)cc1 [Compound N79] |
| 100 to 1000 | CC(C)(C)c1cc(NC(=O)Nc2ccc(OCc3ccccc3C(F)(F)F)cc2)no1 [Compound G4] |
| 100 to 1000 | COc1nc(C)cc(C)c1C(=O)Nc1ccc(NC(=O)Nc2cc(C(C)(C)C)on2)cc1 [Compound N22] |
| > 10000 | Cn1nc(C2CC2)cc1NC(=O)Nc1ccc(OCc2ccccc2)cc1 [Compound H7] |
